Source: patent US20150140043A1, “IMMUNOMODULATORY METHODS USING NOTCH AGONISTS” (INSTITUT NATIONAL DE LA SANTE DE LA RECHERCHE MEDICAL …, priority 2012, published 2015)

B1: DL-1: recombinant NOTCH ligand Delta-like 1, used coated as DL-1-Fc (SEQ ID NO: 8) (protein, listed as Homo sapiens)
chain: MGSRCALALAVLSALLCQVWSSGVFELKLQEFVNKKGLLGNRNCCRGGAGPPPCACRTFFRVCLKHYQASVSPEPPCTYGSAVTPVLGVDSFSLPDGGGADSAFSNPIRFPFGFTWPGTFSLIIEALHTDSPDDLATENPERLISRLATQRHLTVGEEWSQDLHSSGRTDLKYSYRFVCDEHYYGEGCSVFCRPRDDAFGHFTCGERGEKVCNPGWKGPYCTEPICLPGCDEQHGFCDKPGECKCRVGWQGRYCDECIRYPGCLHGTCQQPWQCNCQEGWGGLFCNQDLNYCTHHKPCKNGATCTNTGQGSYTCSCRPGYTGATCELGIDECDPSPCKNGGSCTDLENSYSCTCPPGFYGKICELSAMTCADGPCFNGGRCSDSPDGGYSCRCPVGYSGFNCEKKIDYCSSSPCSNGAKCVDLGDAYLCRCQAGFSGRHCDDNVDDCASSPCANGGTCRDGVNDFSCTCPPGYTGRNCSAPVSRCEHAPCHNGATCHERGHRYVCECARGYGGPNCQFLLPELPPGPAVVDLTEKLEGQGGPFPWVAVCAGVILVLMLLLGCAAVVVCVRLRLQKHRPPADPCRGETETMNNLANCQREKDISVSIIGATQIKNTNKKADFHGDHSADKNGFKARYPAVDYNLVQDLKGDDTAVRDAHSKRDTKCQPQGSSGEEKGTPTTLRGGEASERKRPDSGCSTSKDTKYQSVYVISEEKDECVIATEV

Legend:
Type in all cases: cell-based, human
[1] = system: CD4+CD25- T cell proliferation; test: Sensitization of CD4+CD25- T cells to low-dose TGF-β (anti-CD3 plus NOTCH ligands, no Treg); settings: anti-CD3 plus ligand (5 μg/ml), TGF-β 0.1 ng/ml, 5 days
Method: (§1) FIG. 2: NOTCH suppresses the proliferation of CD4^+CD25^− T cells through TGF-β • A) CD4^+CD25^−T cells were cultured for 5 days in coated wells with anti-CD3 and NOTCH ligands (5 μg/ml) or IgG control (5 μg/ml) in the presence of Treg at ratio 1:16. Anti-TGF-β or IgG control mAbs (2.5 μg/ml) were added at the beginning of the co-culture. The data represent the mean±SEM. * indicates P<0.05. • B) CD4^+CD25^−T cells were cultured for 5 days in coated wells with anti-CD3 and NOTCH ligands (5 μg/ml) or IgG control (5 μg/ml). Low dose of TGF-β (0.1 ng/ml) was added. The data represent the mean±SEM.
Peripheral blood mononuclear cells were separated by Ficoll-Hypaque centrifugation (Amersham Biosciences) from buffy coats obtained from healthy blood donors (EFS, Créteil). CD4^+ CD25^− T cells and CD4^+CD25^high T cells were isolated using a CD4^+ T cell enrichment column and a human CD4^+CD25^+ Treg isolation kit purchased from Miltenyi Biotec. CD4^+CD25^− cells and CD4^+CD25^+ cells were enriched to greater than 95% purity. Cells were plated in media at a concentration of 1.25×10^5 to 5×10^5 cells per ml in a 96-well round-bottom plates coated with 1 μg/ml of anti-CD3 (UCHT1) and 5 μg/ml of NOTCH Ligand (DL-1-Fc, DL-4-Fc and Jagged-1-Fc are a generous Gift from Dr. Sakano). […]

[2] = system: CD4+CD25- T cell proliferation; test: Sensitizing assay: cells pre-incubated with NOTCH ligands, washed, then cultured with anti-CD3 with or without Treg; settings: for Percentage of inhibition of cell proliferation by Treg: CD4+CD25- T cells pre-exposed overnight to ligand (5 μg/ml), Treg ratio 1:8, 5 days anti-CD3, mean of 4 experiments; for Effect of exposure of Treg to ligand on Treg capacity to suppress CD4+CD25- proliferation: Treg exposed to ligand, anti-CD3 mAbs, data not shown
Method: FIG. 1: NOTCH signalling is involved in Treg mediated inhibition of anti-CD3 stimulated CD4^+CD25^− T cell proliferation • A) Various ratio of CD4^+CD25^− T cells and CD4^+CD25^high T cells were cultured for 5 days in coated wells with anti-CD3 (1 μg/ml) in the presence or not of inhibitor of g-secretase (GSI 10 μM). Percentages of inhibition were calculated from the raw data using the equations: 1—(mean cpm of co-culture wells divided by mean cpm of CD4^+CD25^− cells cultured alone)×100. The data represent the mean±SEM and are representative of 5 independent experiments. * indicates P<0.05. • B) CD4^+CD25^−T cells were cultured for 18 hours in coated wells with anti-CD3 and NOTCH ligands (5 μg/ml) or IgG control (5 μg/ml). Then, T cells were washed and incubated for 5 days in coated wells with anti-CD3 in the absence or presence of Treg at ratio 1:8. The data represent the mean±SEM of inhibition of T cell proliferation of 5 independent experiments.
(§2) Peripheral blood mononuclear cells were separated by Ficoll-Hypaque centrifugation (Amersham Biosciences) from buffy coats obtained from healthy blood donors (EFS, Créteil). CD4^+ CD25^− T cells and CD4^+CD25^high T cells were isolated using a CD4^+ T cell enrichment column and a human CD4^+CD25^+ Treg isolation kit purchased from Miltenyi Biotec. CD4^+CD25^− cells and CD4^+CD25^+ cells were enriched to greater than 95% purity. Cells were plated in media at a concentration of 1.25×10^5 to 5×10^5 cells per ml in a 96-well round-bottom plates coated with 1 μg/ml of anti-CD3 (UCHT1) and 5 μg/ml of NOTCH Ligand (DL-1-Fc, DL-4-Fc and Jagged-1-Fc are a generous Gift from Dr. Sakano).
A total of 2.5×10^4 CD4^+CD25^− T cells were cultured with various ratios of CD4^+CD25^high cells and 1 μg/ml of anti-CD3 for 5 days, in the presence or absence of 10 μm of the gamma-secretase inhibitor Compound E. A total of […] [^3H] thymidine (Amersham Pharmacia) was added to the wells during the last 16 hours of culture. The cells were then harvested and assessed for [^3H] thymidine incorporation using a liquid scintillation counter. Results were expressed as mean cpm of quadriplicate culture wells.
(§3) Percentage of inhibition was calculated as follows: 1−(mean cpm of co-culture wells divided by mean cpm of CD4^+CD25^− cells cultured alone)×100.
In sensitizing assays CD4^+CD25^− and CD4^+CD25^high were pre-incubated during 16 hours on coated NOTCH Ligand. Cells were also collected, washed and incubated alone or with Treg and stimulated as described above. Some experiments were performed in the presence of anti-TGF-β or IgG control (2.5 μg/ml). […]

[3] = system: CD4+CD25- T cell proliferation; test: Coculture of effector T cells and Treg at low ratio on immobilized NOTCH ligands, with or without anti-TGF-β; design: Mean inhibition of T cell proliferation / Mean inhibition of T cell proliferation in the presence of anti-TGF-β mAbs: unit of the concentration uncertain
Method: as §1, §2, §3
In sensitizing assays CD4^+CD25^− and CD4^+CD25^high were pre-incubated during 16 hours on coated NOTCH Ligand. Cells were also collected, washed and incubated alone or with Treg and stimulated as described above. Some experiments were performed in the presence of anti-TGF-β or IgG control (2.5 μg/ml).
The implication of NOTCH1 on effector T cell responses in the presence of Treg through a TGF-β signalling mechanism has not yet been elucidated. To test this, a coculture experiments of effector T cells and Treg at a low ratio (ratio 1:16) in the presence of immobilized NOTCH ligands DL1, DL4 and Jagged-1 or Ig controls at […] was performed. […]

Row | Molecule | Percentage of inhibition of proliferation in the presence of TGF-β [1] [%] | Percentage of inhibition of cell proliferation by Treg [2] [%] | Effect of exposure of Treg to ligand on Treg capacity to suppress CD4+CD25- proliferation [2] | Mean inhibition of T cell proliferation in the presence of anti-TGF-β mAbs ([3]; coculture with Treg at ratio 1:16, immobilized ligand at 5 µg/mL, anti-TGF-β 2.5 µg/mL added at the beginning of the culture) [%] | Mean inhibition of T cell proliferation ([3]; coculture with Treg at ratio 1:16, immobilized ligand at 5 µg/mL, no anti-TGF-β) [%] | Effect of anti-TGF-β on coculture of Treg and ligand-treated effector T cells ([3]; Treg ratio 1:16, anti-TGF-β 2.5 μg/ml)
1 | Jagged-1: recombinant NOTCH ligand Jagged-1, used coated as Jagged-1-Fc (SEQ ID NO: 5) | 87.8 | 65 | did not modify the Treg capacity | 19.3 | 65 | 
2 | B1 | 42.9 | 64.8 | did not modify the Treg capacity |  |  | did not affect
